Consider 3 compounds from patent US5753631A, “Intercellular adhesion mediators” (Cytel Corporation, priority 1995, dated 1998).

For one experiment, the system named is selectin receptors. The conditions noted are these: Berg et al.; cited from earlier work.
Experiment [1] addresses T1, ELAM-1 (Homo sapiens, UniProt P16581).
T1 construct: adhesion of neutrophils (PMN)
T1 sequence (P16581 22-610): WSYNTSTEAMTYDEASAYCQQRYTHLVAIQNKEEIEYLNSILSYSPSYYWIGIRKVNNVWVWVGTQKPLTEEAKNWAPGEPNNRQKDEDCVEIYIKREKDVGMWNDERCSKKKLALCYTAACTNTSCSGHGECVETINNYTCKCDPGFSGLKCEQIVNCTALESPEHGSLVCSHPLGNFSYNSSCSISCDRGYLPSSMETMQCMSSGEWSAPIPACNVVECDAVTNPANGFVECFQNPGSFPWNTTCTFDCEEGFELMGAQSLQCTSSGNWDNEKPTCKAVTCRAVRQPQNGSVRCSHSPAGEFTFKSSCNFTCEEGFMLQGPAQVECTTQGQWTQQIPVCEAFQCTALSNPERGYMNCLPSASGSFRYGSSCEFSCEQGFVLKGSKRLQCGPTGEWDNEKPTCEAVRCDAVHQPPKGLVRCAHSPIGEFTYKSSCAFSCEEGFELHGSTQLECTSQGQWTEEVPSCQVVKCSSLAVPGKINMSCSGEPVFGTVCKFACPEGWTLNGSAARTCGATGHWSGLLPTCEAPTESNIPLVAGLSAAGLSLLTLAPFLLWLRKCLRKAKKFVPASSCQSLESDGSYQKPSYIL
Description: Liposome inhibition of neutrophil (PMN) adhesion to IL-1 activated endothelium (HUVEC). The format is cell-based. To be noted: for inhibition of neutrophil adhesion to activated endothelium: E-Selectin dependent binding assay, liposomes. As for the experimental part:
Two synthetic compounds were prepared. One comprised sialic acid in an α2,3 linkage, as in naturally occurring SLe^x. The second comprised sialic acid in an α2,6 linkage, to examine the importance of the nature of the linkage to receptor binding.
Liposomes were prepared by adding 12 μl of absolute ethanol (ETOH) to each tube, warming briefly in a 50° C. water bath and sonicating for 2 min. 238 μl of warm phosphate buffered saline (PBS) was added slowly to each tube while sonicating and sonication was continued for a further 10 min. The final concentration of stock liposomes was 400 μg glycolipids/ml in 5% ETOH/PBS.
1. HUVECs, PMNs, and liposomes were prepared as described above.
2. The stimulated HUVEC assay plate was removed from the incubator and the wells were washed two times with RPMI 1640 containing 5 mg/ml bovine serum albumin (BSA).
3. Liposomes stocks were diluted in the HBSS/BSA buffer to make solutions equal to: 40 μg/ml, 30 μg/ml, 15 μg/ml, 7.5 μg/ml, 3.75 μg/ml and 1.87 μg/ml. Similar dilutions were prepared from a control stock consisting of PBS-5% ETOH.
4. The medium was removed from the wells of the assay plate with a pasteur pipette, a few wells at a time.
5. 0.05 ml of each liposome suspension was added to duplicate wells on the stimulated assay plate. Control wells received the liposome buffer containing ethanol HBSS and BSA at the same concentrations as in the liposome containing wells. Control buffer was plated on unstimulated and stimulated HUVEC. Liposome containing samples were added to stimulated wells only.
6. The plates were incubated for 40 min at 37° C. and then 50 μl of PMNs were added to the assay wells. The final concentration of cells was 5×10^5 well in 100 μl.
7. The assay plate was returned to the incubator (5% CO2, 37° C.) for 8 min.
8. Unbound cells were removed from the wells of the assay plates by systematic resuspension using a P200 multichannel pipette followed by addition and removal of 0.2 ml of medium.
9. All of the medium was removed from the wells and 50 μl of solubilization buffer was added. This consisted of citrate buffer (24.3 ml of 0.1M Citric acid, 10.5 g/500 ml+25.7 ml of 0.2M dibasic sodium phosphate, 14.2 g/500 ml and SQ H2 O to 100 ml) containing 0.1% NP-40 detergent.
10. The plate was incubated on a rotary shaker for 10 min and then 0.05 ml of OPDA solution [8 mg o-phenylene-diamine, Sigma cat# P-1526, 8 μl of 30% H2 O2 and 10 ml of citrate buffer (as above)] was added to each well. The reaction was allowed to develop for 15 min and then 25 μl of 4N H2 SO4 was added to each well to stop the reaction.
11. A reagent bulk was prepared by mixing 100 μl volumes of the solubilization buffer and the OPDA solution with 50 μl of 4N H2 SO4.
12. 100 μl of supernatant was removed from each of 2 wells and transferred to a flexible ELISA assay plate (Falcon). The plate was scanned spectrophotometrically at 492 nm within 30 min.

Experiment [2] has as its target T1, ELAM-1. The description is as above. The format is cell-based. To be noted: 0.47 μg/ml; Control +IL-1β 0.782.
[3] abbreviates: 1.87 μg/ml, Control +IL-1β 0.725.
[4] abbreviates: 3.75 μg/ml, Control +IL-1β 0.698.
The mark [5] stands for this setting: 7.5 μg/ml, Control +IL-1β 0.658.

In the case of `CC(=O)N[C@H]1[C@H]([C@H](O)[C@H](O)CO)O[C@@](O[C@H]2[C@@H](O)[C@@H](CO)O[C@@H](O[C@H]3[C@H](O[C@@H]4O[C@@H](C)[C@@H](O)[C@@H](O)[C@@H]4O)[C@@H](CO)OC(O)[C@@H]3NC(C)=O)[C@@H]2O)(C(=O)O)C[C@@H]1O` (stereo partly drawn) [SLe^a, NeuAcα2,3Galβ1,3(Fucα1,4)GlcNAcβ1--], the “recognition by selectin receptors” value in the experiment with selectin receptors was “recognized by selectin receptors”.

With “NeuAcα2,3Galβ1,4(Fucα1,3) GlcNAcβ1,3Galβ1,4Glcβ1,1Ceramide [(2,3) SLe^x]”, the “Mean absorbance at 492 nm (bound neutrophils)” value at ELAM-1 [1] (setting [3]) is reported as 0.580; at ELAM-1 [1] (setting [4]), 0.483; at ELAM-1 [1] (setting [5]), 0.359; on ELAM-1 [1] (15 μg/ml, Control +IL-1β 0.740), 0.270; on ELAM-1 [1] (20 μg/ml, Control +IL-1β 0.657), 0.156; at ELAM-1 [2], 0.642. In addition, the “inhibition of neutrophil adhesion to activated endothelium” value on ELAM-1 [1] is “inhibit neutrophil adhesion to activated endothelium”.

In the case of “NeuAcα2,6Galβ1,4(fucα1,3)GlcNacβ1,3Galβ1,4Glcβ1,1Ceramide [(2,6) SLe^x, reference compound]”, the “Mean absorbance at 492 nm (bound neutrophils)” value at ELAM-1 [1] (setting [3]) is listed as 0.690; on ELAM-1 [1] (setting [4]) it was 0.655; at ELAM-1 [1] (setting [5]), 0.602; on ELAM-1 [1] (15 μg/ml, Control +IL-1β 0.740), 0.636; at ELAM-1 [1] (20 μg/ml, Control +IL-1β 0.657), 0.663; on ELAM-1 [2] it was 0.695. The “inhibition of neutrophil adhesion to activated endothelium” value on ELAM-1 [1] was “not”.
